Experimental data taken from patent US12590062B2, “PD-1/PD-L1 inhibitors” (Gilead Sciences, Inc., priority 2017, dated 2026).
pEC50, pIC50: −log10 of the molar value.

Tests used:
PD-1/PD-L1 interaction = target: T1, PD-1/PD-L1 interaction (Homo sapiens, UniProt Q9NZQ7); test: PD-1/PD-L1 NFAT reporter co-culture assay; format: cell-based; details: Jurkat PD-1 NFAT-luciferase cells co-cultured with aAPC-PD-L1 CHO cells, 6 hrs at 37° C.; read-out: EC50 NFAT Luciferase
T1 construct: expressed in transfected cells; host or cells: CHO cells (aAPC-PD-L1) co-cultured with Jurkat cells overexpressing PD-1 and an NFAT-luciferase reporter
T1 sequence (Q9NZQ7 19-290): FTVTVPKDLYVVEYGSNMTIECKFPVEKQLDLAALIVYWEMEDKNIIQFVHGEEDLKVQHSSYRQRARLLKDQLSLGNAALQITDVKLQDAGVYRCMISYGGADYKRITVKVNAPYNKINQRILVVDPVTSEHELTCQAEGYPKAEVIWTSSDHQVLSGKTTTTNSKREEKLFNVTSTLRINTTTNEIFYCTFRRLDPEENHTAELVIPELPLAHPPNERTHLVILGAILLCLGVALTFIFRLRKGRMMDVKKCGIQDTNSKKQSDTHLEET
In short: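 Jurkat cells overexpressing PD-1 with NFAT-driven luciferase were mixed with compound in RPMI 1640/2% FBS and seeded onto overnight-plated CHO aAPC-PD-L1 cells expressing surface anti-CD3 and PD-L1. Co-culture ran 6 h at 37 °C; luminescence read with ONE-Glo; EC50 from four-parameter fit.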

PD-1/PD-L1 = PD-1/PD-L1 (Homo sapiens, UniProt Q9NZQ7); test: PD-1/PD-L1 biochemical protein-protein interaction assay (ALPHA); format: binding; details: 0.3 nM His tagged PD-L1, 2.5 nM biotinylated Fc-PD-1, 60 minutes at 25° C., read-out: IC50 PD-L1-PD-1 Alpha IC50-mono PD-L1-fcP-D1
Chain of PD-1/PD-L1 (Q9NZQ7 19-238 limits assumed): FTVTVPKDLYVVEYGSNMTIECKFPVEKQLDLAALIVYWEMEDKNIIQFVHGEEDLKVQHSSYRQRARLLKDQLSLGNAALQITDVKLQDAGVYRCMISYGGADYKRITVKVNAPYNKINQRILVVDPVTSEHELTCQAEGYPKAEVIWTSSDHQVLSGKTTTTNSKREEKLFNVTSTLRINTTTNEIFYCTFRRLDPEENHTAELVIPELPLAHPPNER
In short: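 Compounds are tested for blocking the PD-1/PD-L1 extracellular-domain interaction using an ALPHA bead assay, in which inhibition lowers the luminescent signal. Reactions run 60 min at 25° C with 0.3 nM His-PD-L1 and 2.5 nM biotinylated Fc-PD-1. IC50 values come from four-parameter fits.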

PD-L1 = target: T2, PD-L1 (Homo sapiens, UniProt Q9NZQ7); test: PD-L1/PD-L1 dimerization biochemical protein-protein interaction assay (ALPHA); format: binding; details: compound-induced PD-L1 dimerization, head prints '1 nM' (0.5 nM His-tagged PD-L1 and 0.5 nM FLAG-tagged PD-L1), read-out: AC50 PDL1 Dimer Alpha 1 nM
T2 construct: determine if they can specifically dimerize the extracellular domains of PD-L1
T2 sequence (Q9NZQ7 19-238 limits assumed): as above
T2 sequence (Q9NZQ7 19-238 limits assumed): as above
In short: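 ALPHA proximity assay of compound-induced dimerization of 0.5 nM His-tagged and 0.5 nM FLAG-tagged PD-L1 extracellular domains in Hepes pH 7.4 buffer, 2 h at 25 °C. Anti-His acceptor then anti-FLAG donor beads, 60 min each; AC50 from four-parameter fit.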

Row | SMILES | pEC50 (PD-1/PD-L1 interaction) | pIC50 (PD-1/PD-L1) | AC50 (PD-L1) [nM]
1 | Cc1c(COc2cc(OCc3cncc(C#N)c3)c(CN[C@@](C)(CO)C(=O)O)cc2Cl)cccc1-c1cccc(-c2ccc(C3CCNC3)cc2)c1C (stereo partly drawn) [Example 342, (S)-2-((5-chloro-2-((5-cyanopyridin-3-yl)methoxy)-4-((2,2′-dimethyl-4″-((R)-pyrrolidin-3-yl)-[1,1′:3′,1″-terphenyl]-3-yl)methoxy)benzyl)amino)-3-hydroxy-2-methylpropanoic acid and(S)-2-((5-chloro-2-((5-cyanopyridin-3-yl)methoxy)-4-((2,2′-dimethyl-4″-((S)-pyrrolidin-3-yl)-[1,1′:3′,1″-terphenyl]-3-yl)methoxy)benzyl)amino)-3-hydroxy-2-methylpropanoic] | 6.35 | 9.40 | 118
2 | OCCNCc1cc(Cl)c2nc(-c3cccc(-c4cccc(-c5nc6c(Cl)cc(CNCCO)cn6n5)c4Cl)c3Cl)nn2c1 [Example 635] | ≤ 4.30 | 10.00 | 340
3 | Cc1c(COc2cc(OCc3cncc(C#N)c3)c(CN[C@@](C)(CO)C(=O)O)cc2Cl)cccc1-c1cccc(-c2ccc3[nH]c([C@@H]4CCCN4)nc3c2)c1C [Example 299, (S)-2-((5-chloro-2-((5-cyanopyridin-3-yl)methoxy)-4-((2,2′-dimethyl-3′-(2-((S)-pyrrolidin-2-yl)-1H-benzo[d]imidazol-5-yl)-[1,1′-biphenyl]-3-yl)methoxy)benzyl)amino)-3-hydroxy-2-methylpropanoic acid] | 6.49 | 9.12 | 162
4 | COc1nc(O[C@H]2CCc3c(-c4cccc(-c5ccc(CNC[C@@H]6CCC(=O)N6)cc5)c4Cl)cccc32)c(Cl)cc1CN1CCC[C@@H]1C(=O)O [Example 724] | 6.92 | 10.19 | 21.2
5 | COc1nc(-c2cccc(-c3cccc4c3CC[C@@H]4Oc3nc(OC)c(CN4CC[C@@H](C(=O)O)C4)cc3Cl)c2Cl)ccc1CNC[C@@H]1CCC(=O)N1 [Example 769] | 7.60 | 10.19 | 28.1
6 | Cc1c(COc2cc(OCc3cncc(C#N)c3)c(CNC[C@@H](O)CC(=O)O)cc2Cl)cccc1-c1cccc(-c2cn3cc(CNC[C@@H](O)CC(=O)O)ccc3n2)c1C [Example 394, (S)-4-(((2-(3′-((4-((((S)-3-carboxy-2-hydroxypropyl)amino)methyl)-2-chloro-5-((5-cyanopyridin-3-yl)methoxy)phenoxy)methyl)-2,2′-dimethyl-[1,1′-biphenyl]-3-yl)imidazo[1,2-a]pyridin-6-yl)methyl)amino)-3-hydroxybutanoic acid] | 6.36 | 9.99 | 130
7 | COc1nc(-c2cccc(-c3cccc(-c4ccc5c(c4)C[C@@H](N)C5)c3Cl)c2Cl)ccc1C1=NCCN1 [Example 625] | ≤ 4.30 | 9.62 | 98.2
8 | Cc1c(COc2cc(OCc3cncc(C#N)c3)c(CNCCO)cc2Cl)cccc1-c1cccc(-c2ccc(C3CCCN3)cc2)c1C (stereo not drawn) [Example 379, 5-((4-chloro-5-((2,2′-dimethyl-4″-(pyrrolidin-2-yl)-[1,1′:3′,1″-terphenyl]-3-yl)methoxy)-2-(((2-hydroxyethyl)amino)methyl)phenoxy)methyl)nicotinonitrile] | 6.38 | 8.62 | 153
9 | COc1nc(-c2cccc(-c3cccc4c3CC[C@@H]4Oc3nc(OC)c(CN4CC5(CCC(=O)N5)C4)cc3Cl)c2Cl)ccc1CNC[C@@H]1CCC(=O)N1 [Example 726] | 7.12 | 9.90 | 81.9
10 | C[C@@](CO)(NCc1cc(Cl)c(O[C@H]2CCc3c(-c4cccc(-c5ccc6c(c5)C[C@@H](N)C6)c4Cl)cccc32)nc1OCc1cncc(C#N)c1)C(=O)O [Example 696] | 7.92 | 10.00 | 16.9
11 | C[C@@](CO)(NCc1cc(Cl)c(O[C@H]2CCc3c(-c4cccc(-c5ccc6c(c5)CC(N)C6)c4Cl)cccc32)nc1OCc1cncc(C#N)c1)C(=O)O (stereo partly drawn) [Example 795] | 7.39 | 10.19 | 9.65
12 | COc1nc(-c2cccc(-c3cccc(COc4nc(OC)c(CN5CC6(CNC(=O)C6)C5)cc4Cl)c3Cl)c2Cl)ccc1CNC[C@@H]1CCC(=O)N1 [Example 430] | 6.57 | 8.69 | 290
13 | COc1cc(-c2cccc(-c3cccc(COc4cc(OCc5cncc(C#N)c5)c(CNC[C@@H](O)CC(=O)O)cc4Cl)c3C)c2C)ccc1CN [Example 507] | 6.68 | 9.16 | 262
14 | Cc1c(COc2cc(OCc3cncc(C#N)c3)c(CN[C@@](C)(CO)C(=O)O)cc2Cl)cccc1-c1cccc(-c2ccc(CN(C)C)cc2)c1Br [Example 483] | 7.16 | 10.19 | 40.9
15 | Cc1c(COc2cc(OCc3cncc(C#N)c3)c(CNC[C@@H](O)CC(=O)O)cc2Cl)cccc1-c1cccc(-c2ccc3c(c2)CC(NCCO)C3)c1C (stereo partly drawn) [Example 473] | 7.07 | 9.80 | 76.8
16 | COc1nc(-c2cccc(-c3cccc4c3CC[C@@H]4Oc3nc(OC)c(CN4CC5(CCC(=O)N5)C4)cc3Cl)c2Cl)ccc1CN1CC2(CCC(=O)N2)C1 [Example 733] | 6.92 | 9.65 | 129
17 | COc1nc(-c2cccc(-c3cccc(-c4ccc5c(c4)C[C@@H](N)C5)c3Cl)c2Cl)ccc1CN1CC2(CCC(=O)N2)C1 [Example 613] | 6.32 | 8.86 | 158
18 | COc1nc(-c2cccc(-c3cccc4c3CC[C@@H]4Oc3ccc(CN[C@@](C)(CO)C(=O)O)c(OCc4cncc(C#N)c4)n3)c2C)ccc1C1=NCCN1 [Example 750] | 6.65 | 10.19 | 72.1
19 | N#Cc1cncc(COc2nc(OCc3cccc(-c4cccc(-c5ccc(OCCNCCO)cc5)c4Cl)c3Cl)c(Cl)cc2CN2C[C@@H](O)C[C@H]2C(=O)O)c1 [Example 560] | 6.79 | 9.87 | 77.8
20 | COc1nc(O[C@H]2CCc3c(-c4cccc(-c5ccc(CNC[C@@H]6CCC(=O)N6)cc5)c4Cl)cccc32)c(Cl)cc1CNC[C@@H]1CCC(=O)N1 [Example 730] | 7.00 | 9.13 | 40.7
21 | Cc1c(COc2cc(OCc3cncc(C#N)c3)c(CNC[C@@H](O)CC(=O)O)cc2Cl)cccc1-c1cccc(-c2ccc([C@H](C)N(C)C)cc2)c1C [Example 380, (S)-4-((5-chloro-2-((5-cyanopyridin-3-yl)methoxy)-4-((4″-((S)-1-(dimethylamino)ethyl)-2,2′-dimethyl-[1,1′:3′,1″-terphenyl]-3-yl)methoxy)benzyl)amino)-3-hydroxybutanoic acid] | 6.19 | 9.55 | 184
22 | Cc1c(COc2cc(OCc3cncc(C#N)c3)c(CN[C@](C)(CO)C(=O)O)cc2Cl)cccc1-c1cccc(-c2ccc(OCCNCCO)cc2)c1C [Example 511] | 6.71 | 10.09 | 36.9
23 | COc1nc(-c2cccc(-c3cccc(-c4ccc5c(ccn5CCN(C)C)c4)c3Cl)c2Cl)ccc1CNC[C@@H]1CCC(=O)N1 [Example 598, (S)-5-((((6-(2,2′-dichloro-3′-(1-(2-(dimethylamino)ethyl)-1H-indol-5-yl)-[1,1′-biphenyl]-3-yl)-2-methoxypyridin-3-yl)methyl)amino)methyl)pyrrolidin-2-one] | 5.74 | 8.52 | 480
24 | C[C@@](CO)(NCc1cc(Cl)c(OCc2cccc(-c3cccc(-c4ccc(OCCN5CC6(CCC(=O)N6)C5)cc4)c3Cl)c2Cl)nc1OCc1cc(C#N)cc(C#N)c1)C(=O)O [Example 566] | 7.07 | 9.96 | 39.4
25 | COc1nc(O[C@H]2CCc3c(-c4cccc(-c5cnc(CNC[C@@H]6CCC(=O)N6)c(OC)n5)c4Cl)cccc32)c(Cl)cc1CN[C@@H]1CCC[C@@H]1O [Example 642] | 6.71 | 8.63 | 67.2
26 | Cc1c(COc2cc(OCc3cncc(C#N)c3)c(CN[C@@](C)(CO)C(=O)O)cc2Cl)cccc1-c1cccc(-c2cnc3c(Cl)cc(CN[C@@](C)(CO)C(=O)O)cc3c2)c1C [Example 296, (S)-2-(((3-(3′-((4-((((S)-2-carboxy-1-hydroxypropan-2-yl)amino)methyl)-2-chloro-5-((5-cyanopyridin-3-yl)methoxy)phenoxy)methyl)-2,2′-dimethyl-[1,1′-biphenyl]-3-yl)-8-chloroquinolin-6-yl)methyl)amino)-3-hydroxy-2-methylpropanoic acid] | 6.07 | 10.19 | 108
27 | Cc1c(COc2cc(OCc3cncc(C#N)c3)c(CNC[C@@H](O)CC(=O)O)cc2Cl)cccc1-c1cccc(-c2ccc(OCCN3CC4(CCC(=O)N4)C3)cc2)c1C [Example 519] | 6.90 | 10.19 | 103
28 | COc1nc(-c2cccc(-c3cccc(COc4cc(OCc5cncc(C#N)c5)c(CN[C@@](C)(CO)C(=O)O)cc4Cl)c3C)c2C)ccc1C1=NCCN1 [Example 504] | 7.17 | 10.19 | 47.8
